# Laboratory results as given in patent publication US20170072012A1, “USE OF GSMTX4 TO REDUCE ISCHEMIA REPERFUSION INJURY” (priority 2014, published 2017).
# Like-named read-outs stand apart in the source and are kept apart here. Where a SMILES comes first, the peptide text is derived from it. Bridges are numbered along the chain shown (N, C = ends). [ ]: non-standard residue; d: D form.
# Key:
# [1] = system: ischemic reperfusion injury in mouse heart; format: in vivo, C57B1/6J mice; details: for myocardial infarction (infarct area / AAR): 4 h reperfusion, vehicle 16.5±1.2%
# Method: Acute GsMTx4-D treatment: All animal protocols in this study were approved by the Institutional Animal Care and Use Committee of the University at Buffalo-State University of New York. C57B1/6J mice were anesthetized with 80 mg/kg of sodium pentobarbital (Sigma, St. Louis, Mo.) via intraperitoneal injection (IP), intubated and ventilated with a respirator (Harvard apparatus, Holliston, Mass., USA) 17. Upon absence of a pedal reflex, surgery was performed under a stereomicroscope. Core body temperature was maintained at 37° C. with a heating pad. After a left lateral thoracotomy, the left anterior descending coronary artery (LAD) was occluded just underneath the left atrium for 20 min with an 8-0 nylon suture. […] A small piece of gauze was used to prevent arterial injury. After 20 min the ligature was removed and the tissue was reperfused for up to 4 h before euthanizing. Three different doses of GsMTx4-D (0.1, 1, 10 mg/kg), verapamil (0.4 mg/kg) or vehicle (saline 50 μL) were administered via tail vein injection 5 min before reperfusion (during induced ischemia). ECGs confirmed the hallmark ischemic ST segment elevation during coronary occlusion (AD Instruments, Colorado Springs, CO, USA). Each group included 5 independent experiments. At the conclusion of the study, mice were euthanized by IP injection of 270 mg/kg pentobarbital. GsMTx4-D pretreatment: To evaluate the effect of GsMTx4-D pretreatment, GsMTx4-D (50 mg/kg) or vehicle (saline 50 μL) were administered via IP injection once daily for 2 days prior to surgery. Ischemia was then elicited with the same 20 min coronary occlusion followed by 24 h reperfusion. Following reperfusion, the chest was closed in layers. A drop of lidocaine was put on the suture site and the mouse was slowly weaned off the ventilator when they resumed spontaneous breathing. The mouse was returned to its cage and kept warm and medicated for pain (buprenorphine). Each group included 5 independent experiments.
# To measure infarct size, hearts were harvested and excised for dual staining at the conclusion of reperfusion. The non-necrotic tissue in the ischemic region was stained red with 2,3,5- triphenyltetrazolium (TTC) and non-ischemic regions were stained blue with Evans blue. The hearts were fixed and sectioned into 1 mm slices, photographed with a Lexica MZ95 microscope and analyzed with NIH ImageJ software (http://imagej.nih.gov/ij/) 19. The infarct size was calculated as the ratio of the percentage of myocardial necrosis to the ischemic Area At Risk (AAR).
# To test whether GsMTx4-D protected the heart against reperfusion injury, we first tested three different doses of the peptide. The positive control was verapamil, a voltage-gated calcium channel inhibitor with established cardioprotective effects on IRI. C57B1/6 mice were subjected to 20 min occlusion of the LAD followed by 4 hours of reperfusion. Three different concentrations of GsMTx4-D (0.1, 1 and 10 mg/kg), verapamil (0.4 mg/kg), or vehicle (saline) were administered through tail vein injection 5 min before reperfusion. […] At the conclusion of reperfusion, the hearts were stained with TTC and Evans Blue (FIG. 2A). […] The verapamil group also had lower infarction size (14.0±0.4%), but the difference wasn't statistically significant. […] To evaluate whether pretreatment with GsMTx4-D could also protect the heart from I/R injury, GsMTx4-D (50 mg/kg) or vehicle (saline 50 μL) were administered daily via IP injection, for 2 days prior to I/R surgery. As before, ischemia was induced from 20 min LAD occlusion, but reperfusion was allowed to continue for 24 hrs. The chest was closed in layers, and animals were weaned off the ventilator when they resumed spontaneous breathing. […] The ratios of AAR to total myocardial area between the two groups were equal as determined by TTC and Evans Blue staining (FIG. 3A and B). […]
# [2] = Single-dose pharmacokinetic study, plasma and heart concentration by LC/MS/MS; format: in vivo, CD-1 mice; details: based on the PK analysis
# [3] = system: ischemic reperfusion injury in mouse heart; test: In vivo pressure-volume relationships after I/R (left ventricular catheterization); parameters: species or system C57B1/6J mice; details: 50 mg/kg IP pretreatment, 24 h reperfusion
# Method: In order to determine hemodynamic differences, we measured the pressure-volume (P-V) relationships in real time in 3 groups of mice, including a sham group that was exposed to the open heart operation but not FR, and the two I/R (20min ischemia/24h reperfusion) induced groups pretreated with either vehicle or GsMTx4-D. To measure the P-V relationships, mice were anesthetized with 4% isoflurane and 100% O2, quickly intubated and ventilated with a respirator. […] The rib cage was slightly retracted and the diaphragm was gently cut away to attain an apical view of the myocardium. A 27-gauge needle was inserted into the apex of the LV free wall to create a guide-hole. A 1.2-French microtransducer pressure-volume impedance catheter (Scisense, London, ON, CA) was then inserted into the lumen of LV to assess real-time LV function. Hemodynamic parameters such as heart rate, cardiac output, and ejection fraction were measured and calculated with the iWorx software (Dover, N.H.). Each group included 5 (sham and GsMTx4-D) to 6 (vehicle) independent experiments.
# To examine the effects of GsMTx4-D on hemodynamics, we compared the P-V relationships between the GsMTx4-D (50 mg/kg) and vehicle (saline 50 μL) in pretreated mice. After 20 min of ischemia followed by 24 h reperfusion, the left ventricle was catheterized to acquire real time P-V relationships (FIG. 3). […] In addition, GsMTx4-D produced improvements in both end systolic and diastolic volumes (FIG. 3 H and I) that led to a significant improvement in ejection fraction (61.7±3.4%, P<0.05) (FIG.3 G). Clearly, GsMTx4-D improves heart function after FR.
structure (smiles),measurement,setting,value
"CC(C)C[C@H]1NC(=O)[C@H](NC(=O)CN)CSSC[C@H]2NC(=O)[C@H]3CSSC[C@H](C(=O)N[C@H](CC(N)=O)C(=O)N[C@H](Cc4ccccc4)C(=O)N[C@H](CO)C(=O)N[C@H](Cc4ccccc4)C(N)=O)NC(=O)[C@@H](CC(C)C)NC(=O)[C@@H](CCCCN)NC(=O)[C@@H](Cc4ccccc4)NC(=O)[C@@H](CC(C)C)NC(=O)[C@@H](CCCCN)NC(=O)[C@@H](CO)NC(=O)[C@@H](CSSC[C@@H](NC(=O)[C@@H](CCCCN)NC(=O)[C@@H](Cc4c[nH]c5ccccc45)NC(=O)[C@@H](Cc4c[nH]c5ccccc45)NC(=O)[C@@H](Cc4ccccc4)NC(=O)[C@@H](CCC(=O)O)NC1=O)C(=O)N[C@H](CC(N)=O)C(=O)N1CCC[C@@H]1C(=O)N[C@H](CC(N)=O)C(=O)N[C@H](CC(=O)O)C(=O)N[C@H](CC(=O)O)C(=O)N[C@H](CCCCN)C(=O)N3)NC(=O)[C@@H](CCCCN)NC(=O)[C@@H](CC(C)C)NC(=O)[C@@H](CCCCN)NC(=O)[C@H]1CCCN1C(=O)[C@@H](CCCNC(=N)N)NC2=O [GsMTx4-D] (H-G[dC][dL][dE][dF][dW][dW][dK][dC][dN][dP][dN][dD][dD][dK][dC][dC][dR][dP][dK][dL][dK][dC][dS][dK][dL][dF][dK][dL][dC][dN][dF][dS][dF]-NH2; disulfide 2-17, 9-23, 16-30 (inferred); N-terminus and C-terminus assumed)",myocardial infarction (infarct area / AAR),[1]; 1.0 mg/kg tail vein 5 min before reperfusion,9.9±1.3%
same,myocardial infarction (infarct area / AAR),[1]; 10 mg/kg tail vein 5 min before reperfusion,12.4±0.5%
same,side-effects from pretreatment,[1]; 50 mg/kg IP daily for 2 days,did not detect any side-effects
same,infarction size (infarct area / AAR),"[1]; 50 mg/kg IP daily for 2 days prior to surgery, 24 h reperfusion, vehicle 16.8±1.1%",10.5±0.7%
same,death or morbidity in acute I/R treatment,"[1]; 0.1, 1 and 10 mg/kg tail vein injection",no death or morbidity observed
same,toxicity in the heart during these studies,[1]; acute IV and IP pretreatment I/R studies,no overt signs of toxicity
same,predicted concentration in the heart at the time of reperfusion,[2]; after the 1 mg/kg IV injection during ischemia,< 0.5 µM
same,predicted concentration in the heart at the time of reperfusion,[2]; after two IP pretreatments (50 mg/kg),1 to 2 µM
same,stroke volume,"[3]; vehicle 18.9±2.3, sham 26.7±1.9",26.2 ± 1.9 µL
same,ejection fraction,"[3]; vehicle 44.4±4.9, sham 75.5±6.4",61.7±3.4%
same,heart rate,"[3]; vehicle 243.9±6.9, sham 304.0±23.6",298.7±14.3 bpm
same,cardiac output,"[3]; vehicle 4636±602, sham 8039±690",77580 ± 321 µL/min
same,end systolic and diastolic volumes,[3]; vs vehicle,improvements
